The supplement of paper PMC10307832

Columns and labels:
Experiment in all cases: relative viability (nuclei count vs DMSO), 5 days (fraction); higher = more cells survive
[1] = compound: C[As](C)SC[C@H](NC(=O)CC[C@H](N)C(=O)O)C(=O)NCC(=O)O [Darinaparsin] + Cc1nc(NC(=O)N2CCC[C@H]2C(N)=O)sc1-c1ccnc(C(C)(C)C(F)(F)F)c1 [Alpelisib] (partner 2 µM)
In short: (§1)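 After 5 days of treatment, lung cancer cells in 1536-well plates were fixed and stained in a single step (final 0.05% Triton X-100, 1% formaldehyde, 1 ug/ml Hoechst) and their nuclei counted on 4× images. Treatment had been applied by pin tool the day after seeding as one drug alone or as a fixed anchor-drug dose with five library-drug doses (not always all listed) in √10 steps. Relative viability is the nuclei count of treated wells divided by that of vehicle wells, and values are medians of duplicate plates.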

[2] = compound: CC1=C(C=C(C=C1)NC(=O)C2=CC(=CC=C2)C(C)(C)C#N)NC3=CC4=C(C=C3)N=CN(C4=O)C [AZ628] + CC1(C)CCC(c2ccc(Cl)cc2)=C(CN2CCN(c3ccc(C(=O)NS(=O)(=O)c4ccc(N[C@H](CCN5CCOCC5)CSc5ccccc5)c(S(=O)(=O)C(F)(F)F)c4)cc3)CC2)C1 [Navitoclax] (partner 0.5 µM)
In short: as §1

[3] = compound: C1CC2=C(C1)C=C(C=C2)OC3=NC(=C4C(=N3)N(C=N4)CC5=CC=C(C=C5)C6=CC=CC=C6)N[C@@H](CC7=CC=CC=C7)CO [QS11] + C[C@]1(O)C[C@@H](c2nc(-c3ccc4ccc(-c5ccccc5)nc4c3)c3c(N)nccn32)C1 [Linsitinib] (partner 1 µM)
In short: as §1

[4] = compound: C[As](C)SC[C@H](NC(=O)CC[C@H](N)C(=O)O)C(=O)NCC(=O)O [Darinaparsin] + COc1cc2c(Oc3ccc(NC(=O)C4(C(=O)Nc5ccc(F)cc5)CC4)cc3F)ccnc2cc1OCCCN1CCOCC1 [Foretinib] (partner 0.25 µM)
In short: as §1

Row | Cell Line | relative viability ([1]; first compound 0.08 µM) | relative viability ([1]; first compound 0.8 µM) | relative viability ([1]; first compound 2.53 µM) | relative viability ([1]; first compound 8 µM) | relative viability ([2]; first compound 0.08 µM) | relative viability ([2]; first compound 0.253 µM) | relative viability ([2]; first compound 0.8 µM) | relative viability ([2]; first compound 2.53 µM) | relative viability ([2]; first compound 8 µM) | relative viability ([3]; first compound 0.08 µM) | relative viability ([3]; first compound 0.253 µM) | relative viability ([3]; first compound 0.8 µM) | relative viability ([3]; first compound 2.53 µM) | relative viability ([3]; first compound 8 µM) | relative viability ([4]; first compound 0.08 µM) | relative viability ([4]; first compound 0.8 µM) | relative viability ([4]; first compound 2.53 µM) | relative viability ([4]; first compound 8 µM)
1 | NCI-H441 | 0.774 | 0.635 | 0.809 | 0.893 | 0.565 | 0.508 | 0.765 | 0.902 | 0.633 | 0.519 | 0.544 | 0.613 | 0.561 | 0.601 | 1.2 | 1.25 | 1.07 | 0.902
2 | NCI-H460 | 0.566 | 0.549 | 0.417 | 0.821 | 1.2 | 1.18 | 1.09 | 1.09 | 0.561 | 0.874 | 0.976 | 0.725 | 0.479 | 0.073 | 1.04 | 1.04 | 1.03 | 1.33
3 | NCI-H520 | 1.07 | 0.712 | 0.885 | 1.04 | 1.18 | 0.842 | 1.05 | 0.968 | 0.772 | – | 0.986 | 1.09 | 1.18 | 1.11 | 1.12 | 0.662 | 0.845 | 0.871
4 | NCI-H596 | 0.511 | 0.621 | 0.421 | 0.602 | 0.839 | 1 | 1.08 | 1.03 | 0.931 | 1.04 | 1.02 | 1.01 | 1.1 | 1.16 | 0.906 | 0.974 | 0.734 | 0.67
5 | NCI-H647 | 1.57 | 1.16 | 0.827 | 1.31 | 1.29 | 1.1 | 1.21 | 1.19 | 1.02 | 1.12 | 1.21 | 1.17 | 1.21 | 1.23 | 1.53 | 1.31 | 1.01 | 1.45
6 | NCI-H727 | 0.718 | 0.587 | 0.549 | 0.683 | 0.339 | 0.276 | 0.163 | 0.154 | 0.165 | 0.287 | 0.296 | 0.338 | 0.316 | 0.289 | 0.917 | 0.863 | 1.11 | 1
7 | NCI-H838 | 1.18 | 1 | 0.846 | 1.14 | 1.15 | 1.19 | 1.1 | 1.11 | 0.991 | 1.07 | 0.879 | 0.7 | 0.837 | 0.851 | 1.19 | 1.03 | 0.856 | 1.23
8 | NCI-H1299 | 1.09 | 1.18 | 0.904 | 1.18 | 1.1 | 1.15 | 1.17 | 1.19 | 0.975 | 0.999 | 0.995 | 0.787 | 0.87 | 0.959 | 1.14 | 1.06 | 1.09 | 1.11
9 | NCI-H1355 | 0.955 | 0.8 | 0.785 | 0.92 | 0.99 | 0.808 | 0.931 | 0.903 | 0.746 | 0.762 | 0.791 | 0.671 | 0.84 | 0.712 | 1.09 | 0.91 | 0.854 | 0.768
10 | NCI-H1395 | 1.17 | 0.912 | 0.909 | 0.945 | 1.2 | 1.08 | 1.1 | 1.05 | 1.22 | – | 1.01 | 1.17 | 1.16 | 1.18 | 1.13 | 0.958 | 0.944 | 0.952
11 | NCI-H1437 | 1.17 | 0.942 | 0.92 | 1.16 | 1.09 | 1.09 | 1.19 | 1.25 | 1.07 | 1.12 | 1.26 | 0.698 | 0.771 | 0.86 | 1.35 | 1.3 | 1.24 | 1.32
12 | NCI-H1651 | 1.11 | 0.994 | 0.931 | 1.27 | 1.07 | 1.02 | 1.2 | 1.25 | 1.1 | 1.12 | 0.987 | 0.813 | 0.939 | 0.581 | 0.951 | 0.885 | 0.851 | 0.777
13 | NCI-H1666 | 1.11 | 0.967 | 1.14 | 1.06 | 0.865 | 0.771 | 0.728 | 0.772 | 0.513 | 0.853 | 0.644 | 0.644 | 0.53 | 0.464 | 0.995 | 0.888 | 1.19 | 1.06
14 | NCI-H1703 | 0.612 | 0.345 | 0.283 | 0.39 | 0.751 | 0.311 | 0.294 | 0.354 | 0.253 | 1.1 | 0.48 | 1.06 | 0.752 | 0.611 | 0.377 | 0.328 | – | 0.307
15 | NCI-H1734 | 0.829 | 0.67 | 0.669 | 0.766 | 0.864 | 0.718 | 0.818 | 0.791 | 0.502 | 0.897 | 0.988 | 0.851 | 0.825 | 0.848 | 1.04 | 0.801 | 0.815 | 0.99
16 | NCI-H1755 | 1.26 | 0.896 | 0.892 | 1.28 | 0.998 | 1 | 1.05 | 1.02 | 0.956 | 1.07 | 0.577 | 0.595 | 0.814 | 0.871 | 0.994 | 0.931 | 0.868 | 1.08
17 | NCI-H1793 | 0.716 | 0.935 | 0.643 | 0.958 | 0.533 | 0.511 | 0.53 | 0.384 | 0.285 | 0.972 | 0.877 | 0.939 | 1.19 | 1.04 | 0.766 | 0.77 | 0.524 | 0.829
18 | NCI-H1915 | 1.12 | 1.06 | 1.03 | 1.11 | 0.764 | 0.768 | 0.79 | 0.689 | 0.584 | 1.05 | 1.14 | – | 1.16 | 1.03 | 1.2 | 1.08 | 0.958 | 1.25
